Assays:
Assay type in all cases: cell-based, human
[1] = test system: SW620 cells; experiment: Neutral red uptake viability assay, SW620; details: for survival rate: 72 h, n = 3, ± SD; for IC50: SW620, 72 h, n = 3, read-out: Cytotoxic activity IC50 (95% CI)
Experimental: (§1) To evaluate this aspect, we investigated the viability of SW620 colon cancer cells and their multidrug-resistant variants (overexpressing ABCB1, ABCC1, and ABCG2) exposed to 1 and 10 μM 4a–e using a neutral red uptake assay (Table ). In general, compounds 4a–e exerted little or no cytotoxic effect on either SW620 or multidrug-resistant sublines even at 10 μM, with the remarkable exception of SW620C (cisplatin-selected variant of SW620) cells, which turned out to be relatively susceptible toward ferrocenyl 4a–c. […] This trend may reflect steric or electronic contributions to cellular uptake or interaction with intracellular targets. […] However, since E/Z isomeric data are currently available only for compound 4c, this hypothesis requires validation. To quantify this effect, IC50 values were determined (Table ). […]
(§2) The normal lung fibroblast MRC-5 and colorectal adenocarcinoma SW620 cell lines used in this experiment were purchased from American Type Culture Collection (USA) via LGC […]
(§3) Standards. Multidrug-resistant variants of SW620 cells were developed in our laboratory as described previously.10, 11 All cells were cultured under standard conditions (37°C, 5% CO2, 100% humidity) in high-glucose DMEM supplemented with GlutaMaxTM, HEPES (ThermoFisher Scientific, USA), and 10% fetal bovine serum (EURx, Poland). Cells were routinely tested for potential Mycoplasma contamination using the MycoProbe Mycoplasma Detection kit (R&D System, USA).
(§4) In total, 104 cells in 100 µL of complete medium were plated per well of a 96-well plate and left overnight to allow cells to adhere to the surface. Then, the cells were exposed to a desired concentration of tested compound(s). Stock solutions were prepared in DMSO and used immediately. The final DMSO concentration was constant and nontoxic (0.1% v/v). After 70-h incubation, neutral red was added to the final concentration of 1 mM. After another 2 h, the medium was aspirated, and cells were washed twice with PBS. Dye was released using 100 µL of a solubilizer (1% acetic acid in 50% ethanol) on an orbital shaker (10 min). Absorbance was read at 540 nm using EnVision Multilabel Plate Reader (Perkin Elmer, USA). Results were expressed as % of control. The IC50 parameters were calculated using GraphPad Prism version 10 (GraphPad Software, Boston, Massachusetts USA). […]
(§5) All experiments were performed in triplicate (n = 3).

[2] = test system: SW620E cells (etoposide-resistant); experiment: Neutral red uptake viability assay, SW620E; details: 72 h; for survival rate: n = 3, ± SD; for IC50: n = 3, read-out: Cytotoxic activity IC50 (95% CI)
Experimental: as §1, §2, §3, §4, §5

[3] = test system: SW620Mito cells (mitoxantrone-resistant); experiment: Neutral red uptake viability assay, SW620Mito; details: 72 h; for survival rate: n = 3, ± SD; for IC50: n = 3, read-out: Cytotoxic activity IC50 (95% CI)
Experimental: as §1, with “In” for “To evaluate this aspect, we investigated the viability of SW620 colon cancer cells and their multidrug-resistant variants (overexpressing ABCB1, ABCC1, and ABCG2) exposed to 1 and 10 μM 4a–e using a neutral red uptake assay (Table ). In”
as §2, §3, §4, §5

[4] = test system: ABCB1-overexpressing SW620V cells; experiment: MDR reversal assay (ERP), SW620V; details: for ERP value, vincristine + compound: SW620V (xlsx); for ERP = IC50(drug)MDR/IC50(drug+4)MDR: vincristine, SW620V
Excerpt: (§6) We investigated the potency of 4a–e to inhibit ABC transporters (ABCB1, ABCC1, and ABCG2) by determining their enhancement of reversal potency (ERP) values. ERP represents fold changes in the IC50 values of anticancer drugs in multidrug-resistant cancer sublines (ABCB1-overexpressing SW620D, SW620E, and SW620V; ABCC1-overexpressing SW620M; ABCG2-overexpressing SW620C and SW620Mito) exposed to a combination of the investigated compounds and anticancer agents at equimolar concentrations, compared with values obtained with drugs alone (Tables S2 and S3 and Figure ).
as §3
(§7) In total, 104 cells in 100 µL of complete medium were plated per well of a 96-well plate and left overnight to allow cells to adhere to the surface. Then, the cells were exposed to a desired concentration of tested compound(s). Stock solutions were prepared in DMSO and used immediately. The final DMSO concentration was constant and nontoxic (0.1% v/v). After 70-h incubation, neutral red was added to the final concentration of 1 mM. After another 2 h, the medium was aspirated, and cells were washed twice with PBS. Dye was released using 100 µL of a solubilizer (1% acetic acid in 50% ethanol) on an orbital shaker (10 min). Absorbance was read at 540 nm using EnVision Multilabel Plate Reader (Perkin Elmer, USA). Results were expressed as % of control. The IC50 parameters were calculated using GraphPad Prism version 10 (GraphPad Software, Boston, Massachusetts USA).
(§8) The enhancement of reversal potency (ERP) value determination
(§9) For MDR reversal assays, cytotoxic agents were co-administered with compounds 4a–4e at equimolar concentrations in a range of 10 nM to 100 µM. IC₅₀ values were determined in ABCB1-overexpressing SW620 cell line variants. The enhancement of reversal potency (ERP) was calculated using the following formula: ERP = IC₅₀(drug)MDR / IC₅₀(drug + compound)MDR. All experiments were performed in triplicate (n = 3).

[5] = test system: ABCG2-overexpressing SW620C cells; experiment: MDR reversal assay (ERP), SW620C; details: for ERP value, cisplatin + compound: SW620C (xlsx); for ERP = IC50(drug)MDR/IC50(drug+4)MDR: cisplatin, SW620C
Excerpt: as §6, §3, §7, §8, §9

[6] = test system: SW620C cells; experiment: Synergy determination (Bliss model, SynergyFinder), SW620C; details: drug cisplatin + additive; for synergy score: Bliss model
Excerpt: (§10) In an ideal setting, the effect of cell exposure to a combination of a chemotherapeutic and an MDR inhibitor should be synergistic. […] The highest synergy scores identified an optimal concentration range where the combination exerted its maximal effect. […] In cisplatin-resistant SW620C cells, the low or lack of synergy observed for most compounds may be due to the additive effects of cisplatin and 4 rather than a true synergistic interaction. […]
(§11) To evaluate the potential interactions between putative ABC inhibitors and anticancer drugs, we utilized the Bliss independence model, as implemented in the SynergyFinder web application.13, 14 Synergy scores and the most synergistic area scores were calculated based on the normalized dose–response matrices. A synergy score below −10 indicates likely […]
(§12) above 10 is indicative of likely synergistic interactions.
(§13) All experiments were performed at least three times, and the data were statistically analyzed

[7] = test system: SW620D cells; experiment: Synergy determination (Bliss model, SynergyFinder), SW620D; details: drug doxorubicin + additive; for synergy score: Bliss model
Excerpt: as §10, §11, §12, §13

[8] = test system: SW620E cells; experiment: Synergy determination (Bliss model, SynergyFinder), SW620E; details: drug etoposide + additive; for synergy score: Bliss model
Excerpt: as §10, §11, §12, §13

[9] = test system: SW620Mito cells; experiment: Synergy determination (Bliss model, SynergyFinder), SW620Mito; details: drug mitoxantrone + additive, SW602Mito; for synergy score: Bliss model
Excerpt: as §10, §11, §12, §13

Row | SMILES | survival rate ([1]; SW620, 1 μM) | survival rate ([1]; SW620, 10 μM) | IC50 [1] | survival rate ([2]; 1 μM) | survival rate ([2]; 10 μM) | IC50 [2] | survival rate ([3]; 1 μM) | survival rate ([3]; 10 μM) | ERP value, vincristine + compound [4] | ERP = IC50(drug)MDR/IC50(drug+4)MDR [4] | ERP value, cisplatin + compound [5] | most synergistic area score [6] | synergy score [6] | most synergistic area score [7] | synergy score [7] | most synergistic area score [8] | synergy score [8] | most synergistic area score [9] | synergy score [9] | ERP = IC50(drug)MDR/IC50(drug+4)MDR [5] | also measured
1 | O=C1N/C(=C/c2cccc(-[c-]3cccc3)c2)C(=O)N2CCC[C@@H]12.[Fe+2].c1cc[cH-]c1 [(S,E)-4c] | 95 ± 3.4% | 95 ± 6.0% | > 100 µM | 95 ± 2.1% | 91 ± 0.8% | > 100 µM | 94 ± 3.5% | 94 ± 1.1% | 0.81 | 0.81 | 3.45 | 8.86 | 0.39 | 1.68 | –3.01 | 1.22 | –4.06 | 0.67 | –4.74 | – | IC50 [3]: > 100 µM
2 | O=C1N/C(=C/c2ccccc2)C(=O)N2CCC[C@@H]12 [(S,E)-4e] | 96 ± 3.4% | 96 ± 2.2% | – | 96 ± 2.5% | 99 ± 0.9% | – | 94 ± 0.7% | 96 ± 0.8% | 1.34 | 1.37 | 1.98 | 3.89 | –2.78 | 0.00 | –6.63 | 0.19 | –3.93 | 4.35 | –0.12 | 1.98 | –
3 | O=C1N/C(=C\[c-]2cccc2)C(=O)N2CCC[C@@H]12.[Fe+2].c1cc[cH-]c1 [(S,Z)-4a] | 95 ± 2.2% | 88 ± 6.0% | > 100 µM | 93 ± 0.8% | 94 ± 3.0% | > 100 µM | 98 ± 2.0% | 90 ± 3.1% | 6.00 | 6.00 | 4.86 | 4.33 | –2.62 | 20.51 | 6.30 | 28.26 | 12.44 | 16.82 | 7.86 | 4.86 | IC50 [3]: > 100 µM
4 | O=C1N/C(=C\c2ccccc2-[c-]2cccc2)C(=O)N2CCC[C@@H]12.[Fe+2].c1cc[cH-]c1 [(S,Z)-4b] | 91 ± 8.0% | 84 ± 13% | > 100 µM | 93 ± 1.2% | 99 ± 0.8% | > 100 µM | 85 ± 1.0% | 85 ± 1.9% | 9.57 | 9.57 | 4.53 | 0.00 | –2.78 | 11.62 | 3.96 | 14.42 | 3.32 | 19.63 | 11.11 | 4.53 | IC50 [3]: 44.9 µM
5 | O=C1N/C(=C\c2ccc(-[c-]3cccc3)cc2)C(=O)N2CCC[C@@H]12.[Fe+2].c1cc[cH-]c1 [(S,Z)-4d] | 97 ± 3.0% | 97 ± 2.1% | > 100 µM | 97 ± 0.8% | 94 ± 2.5% | > 100 µM | 98 ± 0.9% | 93 ± 1.1% | 12.7 | 12.7 | 2.58 | 13.42 | – | 17.81 | 7.37 | 26.95 | 16.02 | 27.66 | 17.05 | 2.58 | IC50 [3]: > 100 µM
6 | O=C1N/C(=C\c2ccccc2)C(=O)N2CCC[C@@H]12 [(S,Z)-4e] | 94 ± 5.4% | 92 ± 5.0% | – | 94 ± 1.9% | 96 ± 4.4% | – | 92 ± 1.3% | 94 ± 1.8% | 1.27 | 1.27 | 0.70 | 6.66 | –3.14 | 0.00 | –8.70 | 2.22 | –2.56 | 0.00 | –3.17 | 0.70 | –
